Experiments:
[1] = system: IL-5; assay: Cytokine suppression in splenocytes: IL-5; type: cell-based, Balb/C mice; conditions: 48 hrs
Protocol: (§1) Naïve Balb/C mice were randomized in two groups. Mice from groups 1 and 2 were sacrificed and spleens were isolated. The Splenocytes were isolated and cultured in RPMI […] 1640 media with 10% FBS and 1% antibiotics in microtitre plate. Group 1 was incubated with PBS while group 2 was incubated with 10̂8 Mw cells. After 48 hrs the cell supernatant was separated and the levels of cytokines were checked using commercial kit from R & D systems (Cat # M2000, Cat # M4000B, Cat # M1240).
(§2) Naïve Balb/C mice were sacrificed and spleens were isolated for all five groups. The splenocytes were isolated from each group and cultured in RPMI 1640 media with […] in microtitre plate. The cells were plated in micro titer plate. The wells were divided into five sets. Set one was the control, set two was stimulated with Mw, set three with 10 mM of Dexamethasone set four with 10 mcM (micro mole) of Dexamethasone and set five with 1 mcM of dexammethasone. After 48 hrs of culture the cells were harvested and the cytokine assays were performed using commercial kits from R&D systems. (Cat #M5000, Cat #M4000B, Cat #M2000, Cat #M1240)

[2] = system: IL-2; assay: Cytokine suppression in splenocytes: IL-2; type: cell-based, Balb/C mice; conditions: 48 hrs
Protocol: as §1, §2

[3] = system: IL-4; assay: Cytokine suppression in splenocytes: IL-4; type: cell-based, Balb/C mice; conditions: 48 hrs
Protocol: as §1, §2

[4] = system: IL-12p40; assay: Cytokine suppression in splenocytes: IL-12p40; type: cell-based, Balb/C mice; conditions: 48 hrs
Protocol: as §1, §2

[5] = after administration of 200 mg of Dexamethasone intravenously; cited from earlier work

## C[C@@H]1C[C@H]2[C@@H]3CCC4=CC(=O)C=C[C@]4(C)[C@@]3(F)[C@@H](O)C[C@]2(C)[C@@]1(O)C(=O)CO [Dexamethasone]
[1]; Dexamethasone 1 mcM
  In vitro % inhibition of IL-5: 43.9%
[1]; Dexamethasone 10 mcM
  In vitro % inhibition of IL-5: 70.3%
[1]; Mus musculus, Splenocyte, Dexamethasone 10 mM, read-out: In vitro % inhibition of IL-5
  inhibition at 10000 µM: 85.8%
[2]; Dexamethasone 1 mcM
  In vitro % inhibition of IL-2: 25.6%
[2]; Dexamethasone 10 mcM
  In vitro % inhibition of IL-2: 33.7%
[2]; Mus musculus, Splenocyte, Dexamethasone 10 mM, read-out: In vitro % inhibition of IL-2
  inhibition at 10000 µM: 70.6%
[3]; Dexamethasone 1 mcM
  In vitro % inhibition of IL-4: 61.9%
[3]; Dexamethasone 10 mcM
  In vitro % inhibition of IL-4: 84.5%
[3]; Mus musculus, Splenocyte, Dexamethasone 10 mM, read-out: In vitro % inhibition of IL-4
  inhibition at 10000 µM: 93.7%
[4]; Dexamethasone 1 mcM
  In vitro % inhibition of IL-12p40: 33.7%
[4]; Dexamethasone 10 mcM
  In vitro % inhibition of IL-12p40: 47.1%
[4]; Mus musculus, Splenocyte, Dexamethasone 10 mM, read-out: In vitro % inhibition of IL-12p40
  inhibition at 10000 µM: 57.7%
[5]
  Cmax: 10000 µM

Source: patent US20100104536A1, “P38 INHIBITORS” (priority 2007, published 2010)
